Measurements published in patent US11357814B2, “Application of Sarcococca vagans, Chinese medicinal ointment for treating skin disease, preparation method and application thereof” (priority 2017, dated 2022).

Columns and labels:
[1] = tested on: capillary permeability of mouse abdominal cavities; test: Inhibition of capillary permeability of mouse abdominal cavities, Evans blue / glacial acetic acid (Effect Example 7); format: in vivo, Kunming mice; conditions: dexamethasone 9.9 ug/kg fed; 580 nm
Source text: Test for Sarcococca […] effect of inhibiting capillary permeability. Roots of Sarcococca […] dried in the sun, and ground to powder for subsequent use. 1. […] 2. Test reagent: Sarcococca […] powder, dexamethasone acetate tablets (Zhejiang Xianju Pharmaceutical Co., Ltd., batch No. 120347), and glacial acetic acid and xylene were both analytically pure. 3. […] After the Sarcococca […] powder was sieved by 120 meshes, a suitable amount of the Sarcococca […] powder was taken and dissolved in a 0.5% sodium carboxymethylcellulose solution, to prepare high-dosage (0.30 g/ml), medium-dosage (0.15 g/ml), and low-dosage (0.075 g/ml) Sarcococca […] powder suspension. The dexamethasone acetate tablets were ground in the 0.5% sodium carboxymethylcellulose solution, to prepare 19.8 ug/ml suspension. […] For each group, the mice were fed twice each day for the first two days, fed once on the third day, after 30 min, the animals in each group were injected with Evans blue saline at 0.1 ml/10 g through tail vein, then were intraperitoneally injected with 0.9% glacial acetic acid, 40 min after the injection, each animal was killed by cervical dislocation, whose abdominal cavity was washed with saline, and a washing liquid was collected, to be adjusted to a volume of 7 ml, centrifuged at 3000 r/min for 5 min, and measured in absorbance at a 580 nm wavelength.

[2] = tested on: xylene-induced mouse ear edema; test: Xylene-induced mouse ear edema (Effect Example 6); format: in vivo, Kunming mice; conditions: dexamethasone 9.9 ug/kg fed
Source text: Influences of Sarcococca […] to xylene-induced mouse ear edema. Roots of Sarcococca […] dried in the sun, and ground to powder for subsequent use. 1. […] Test reagent: Sarcococca […] powder, dexamethasone acetate tablets (Zhejiang Xianju Pharmaceutical Co., Ltd., batch No. 120347), and glacial acetic acid and xylene were both analytically pure. 3. […] After the Sarcococca […] powder was sieved by 120 meshes, a suitable amount of the Sarcococca […] powder was taken and dissolved in a 0.5% sodium carboxymethylcellulose solution, to prepare high-dosage (0.30 g/ml), medium-dosage (0.15 g/ml), and low-dosage (0.075 g/ml) Sarcococca […] powder suspension. The dexamethasone acetate tablets were ground in the 0.5% sodium carboxymethylcellulose solution, to prepare 19.8 ug/ml suspension. […] For each group, the mice were fed twice each day for first two days, once on the third day, and after 30 min, 0.05 ml of xylene was applied to both front and back faces of right ear of each mouse in each group, while left ear was not coated with the medicine as control. 40 min after the coating, the mice were killed by cervical dislocation, the left and right ears were cut off, and ear slices at the same parts of the two ears were taken with a puncher and weighed. The difference between weights of the left and right ears is swelling degree. Each group was recorded, and t test was carried out among the groups. […]

[3] = tested on: tinea capitis, tinea corporis, tinea cruris or tinea of feet and hands; test: Clinical treatment of fungal skin diseases with ointment (Effect Example 3); format: in vivo, human
Source text: For the purpose of explaining application of the Chinese medicinal ointment provided in the present disclosure for treating fungal skin diseases, for example, treating tinea capitis, tinea corporis, tinea cruris and tinea of feet and hands.
1. Subjects: 150 patients were collected clinically, with 101 males and 49 females, between 16 years old and 65 years old, all of whom suffered from tinea capitis, tinea corporis, tinea cruris or tinea of feet and hands.
(§1) 2. Test grouping: the patients were randomly grouped into 3 groups, 50 patients in each group. The Chinese medicinal ointment prepared in Examples 1-9 was used for the test group, the Chinese medicinal ointment prepared in the comparative example was used for Control Group 1, and another commercially available ointment for treating tinea corporis, e.g. Ketoconazole, was used for Control Group 2. For each patient, the corresponding ointment was applied on affected parts twice a day, for 2 months continuously.
(§2) 3. Criterion of therapeutic effect:
Cured: Fungi microscopic examination is negative, and tinea and pruritus completely disappear;
Effective: Fungi microscopic examination is negative, tinea substantially disappears, and pruritus is evidently alleviated;
Ineffective: Fungi microscopic examination is positive, and tinea and pruritus are not relieved. Total effective rate=(cured cases+effective cases)/total cases

allergic dermatitis = test: Clinical treatment of allergic skin diseases with ointment (Effect Example 2); format: in vivo, human
Source text: For the purpose of explaining application of the Chinese medicinal ointment provided in the present disclosure for treating allergic skin diseases, for example, treating dermatitis and eczema.
1. Subjects: 300 patients were collected clinically, with […] and 131 females, between 19 years old and 68 years old, all of whom suffered from allergic dermatitis.
as §1, with “100” for “50”, “dermatitis,” for “tinea corporis,”, “Fluocinolone acetonide,” for “Ketoconazole,”, “1 month” for “2 months”
as §2
Cured: clinical symptoms completely disappear;
Total effective rate=(cured cases+effective cases)/total cases

[4] = cases of 50 patients per group, twice a day for 2 months

## CC(=O)OCC(=O)[C@@]1(O)[C@H](C)C[C@H]2[C@@H]3CCC4=CC(=O)C=C[C@]4(C)[C@@]3(F)[C@@H](O)C[C@@]21C [Dexamethasone, dexamethasone acetate]
[1]
  Absorbance (A): 0.569 ± 0.238 ^
[2]; 40 min after xylene
  Swelling Degree: 0.0101 ± 0.0034 g
[2]; vs normal group
  Swelling Inhibition Rate: 20.0%

## CC(=O)N1CCN(c2ccc(OCC3COC(Cn4ccnc4)(c4ccc(Cl)cc4Cl)O3)cc2)CC1 (centres unmarked) [Ketoconazole]
[3]; (cured cases+effective cases)/total cases, twice a day for 2 months
  Total Effective Rate: 74%
[3]; cases of 50 patients per group, applied twice a day for 2 months, fungi microscopic examination negative, tinea and pruritus completely disappear
  Cured: 16
[3]; [4]
  Effective: 21
  Ineffective: 13

## CC1(C)O[C@@H]2C[C@H]3[C@@H]4C[C@H](F)C5=CC(=O)C=C[C@]5(C)[C@@]4(F)[C@@H](O)C[C@]3(C)[C@]2(C(=O)CO)O1 [Fluocinolone acetonide]
Allergic dermatitis; (cured cases+effective cases)/total cases, twice a day for 1 month
  Total Effective Rate: 77%
Allergic dermatitis; cases of 100 patients per group, applied twice a day for 1 month, clinical symptoms completely disappear
  Cured: 40
Allergic dermatitis; cases of 100 patients per group, twice a day for 1 month
  Ineffective: 23
Allergic dermatitis; cases of 100 patients per group, twice a day for 1 month, symptoms evidently improved
  Effective: 37
